Laboratory results as given in patent publication US6693102B2, “Pyridine-substituted pyrazolopyridine derivatives” (Bayer Aktiengesellschaft, priority 2000, dated 2004).

Tested on: rabbit aorta rings
Experiment: Vasorelaxant action in vitro (phenylephrine-contracted rabbit aorta rings)
Conditions: Oryctolagus cuniculus, phenylephrine contraction, 37° C., 0.1% DMSO
Protocol: Rabbits are stunned by a blow to the neck and exsanguinated. The aorta is removed, freed from adherent tissue, divided into rings 1.5 mm wide and individually transferred under a pretension to 5 ml organ baths containing carbogen-aerated Krebs-Henseleit solution of the following composition (mM) at 37° C.: NaCl: 119; KCl: 4.8; CaCl2×2H2O: 1; MgSO4×7H2O; 1.4; KH2PO4: 1.2; NaHCO3:25; Glucose: 10. The contractile force is determined using Statham UC2 cells, amplified and digitalized by means of A/D converters (DAS-1802 HC, Keithley Instruments Munich), and recorded in parallel on linear recorders. To produce a contraction, phenylephrine is added to the bath cumulatively in increasing concentration. After several control cycles, the substance to be investigated is investigated in each further passage in increasing dose in each case and the height of the contraction is compared with the height of the contraction reached in the last previous passage. From this, the concentration is calculated which is necessary in order to reduce the height of the control value by 50% (IC50). The standard administration volume is 5 μl and the proportion of DMSO in the bath solution corresponds to 0.1%.

SMILES | IC50 [nM]
Nc1nc(-c2nn(Cc3ccccc3F)c3ncccc23)nc(N)c1-c1ccncc1 [Example 4, 2-[1-(2-fluorobenzyl)-1H-pyrazolo[3,4-b]pyridine-3-yl]-5-(4-pyridinyl)-4,6-pyrimidine diamine] | 1210
Nc1nc(-c2nn(Cc3ccccc3F)c3ncccc23)ncc1-c1ccncc1 [Example 1, 2-[1-[(2-Fluorophenyl)methyl]-1H-pyrazolo[3,4-b]pyridin-3-yl]-5-(4-pyridinyl)-4-pyrimidinamine] | 660
